Marks after values point to notes of the source that are not given here.
Experiments:
BxPC-3 pancreatic cancer = experiment: In vivo growth of BxPC-3 pancreatic cancer xenografts; parameters: species or system human; conditions: BxPC-3-RFP; 35 days after inoculation; Pter and/or CRC
MelJuso melanoma cells = experiment: Nrf2- and redox state-related enzyme activities and metabolites in MelJuso cells growing in vivo; parameters: species or system human; conditions: in vivo +Pter, day 35
Protocol: Transfection of the Red Fluorescence Protein.
First the pDsRed-2 vector (Clontech Laboratories Inc., Palo Alto, Calif.) was used, as previously described for A375 melanoma cells (Mena, S. et al. J Transl Med 10, 8 (2012)), to engineer A2058, MeWo and MelJuso melanoma clones stably expressing the RFP. Isolation of A2058-RFP, MeWo-RFP or MelJuso-RFP cells from the growing xenografts was performed by laser microdissection and high-performance cell sorting as previously described in detail (Mena, S. et al. J Transl Med 10, 8 (2012)).
(§1) To measure enzyme activity, isolated tumor cells were homogenized in 0.1 M phosphate buffer (pH 7.2) at 4° C. GCL and GSS activities were measured as described previously (Obrador, E. et al. Hepatology 35, 74-81 (2002)). GPX (selenium dependent) activity was measured as described by Flohé and Gunzler (Flohe, L. & Gunzler, W. A. Methods Enzymol 105, 114-121 (1984)) using H2O2 as a substrate. GSR activity was determined as described by Akerboom and Sies (Akerboom, T. P. et al, Bull Eur Physiopathol Respir 17 Suppl, 221-227 (1981)). GGT activity was measured as described previously (Obrador, E. et al. Hepatology 35, 74-81 (2002)). GST activity was measured using an assay kit from Sigma. TXNRD activity, defined by the concentration of sodium-lipoate (disulfide) reduced to dehydrolipoate (dithiol) per milligram protein, was measured as previously described (Javvadi, P. et al. Cancer Res 70, 1941-1950 (2010)). SOD activity was measured as described by Flohé and Otting (Flohe, L. & Otting, F. Methods Enzymol 105, 93-104 (1984).) using 2 mM cyanide in the assay medium to distinguish mangano-type enzyme (SOD2) from the cuprozinc type (SOD1). CAT activity was analyzed as described by Aebi (Aebi, H. Methods Enzymol 105, 121-126 (1984)). NOX activity was measured by chemiluminescence following the methodology of Wind et al. (Wind, S. et al. Comparative pharmacology of chemically distinct NADPH oxidase inhibitors. Br J Pharmacol 161, 885-898 (2010)). Protein concentration was determined with the Pierce BCA protein assay (Fisher Scientific, Waltham, Mass.).
Measurement of H2O2 and O2^⋅−.
Quantitative measurement of H2O2 and flow cytometry determination of O2^⋅− generation were performed as previously described (Benlloch, M. et al. J Biol Chem 281, 69-79 (2006)).
(§2) GSH, GSSG, NADP^+ and NADPH Determination.
(§3) GSH and GSSG were determined, following procedures previously described (Obrador, E. et al. PLoS One 9, e96466 (2014)), by LC/MS using the same equipment described above for pterostilbene determination. Cell processing was performed according to published methodology, where rapid N-ethylmaleimide derivatization was used to prevent GSH auto-oxidation (Asensi, M. et al. Anal Biochem 217, 323-328 (1994)). NADP^+ and NADPH were quantitated using an assay kit from Sigma (St. Louis, Mo.).

HT-29 cells = experiment: GSH levels and glutathione- and oxidative stress-related enzyme activities in HT-29 cells growing in vivo; parameters: species or system human; conditions: HT-29, in vivo Pter, day 21
Protocol: as §1, §2, §3
Isolation of Tumor Cells from Mouse Xenografts Using Enzymatic Digestion and a double Ficoll gradient.
To maximize the amount of isolated cells, avoiding the use of RFP-transfected cells and subsequent laser microdissection, an alternative methodology was set up. To maximize cell yield and viability the following combination of enzymes was used: collagenase III (200 U/ml; Sigma-Aldrich), DNase I (200 U/ml; Sigma-Aldrich) and trypsin (5 mg/ml; Invitrogen), and a non-enzymatic dissociation buffer (NEDB, Invitrogen). Briefly, mice were killed, and tumors were removed (avoiding skin, muscle and fat) into cold culture media and processed immediately. The tumors were minced into 1-3 mm fragments, which were then incubated with the dissociation solution (see above) for 30 min at 37° C. The tumor fragments were mixed up and down every 10 min using a […] micropipette with a tip cut to a diameter adapted to tissue fragment size. After each incubation period, the fragments were filtered through a […] nylon mesh cell strainer (BD Biosciences, San Diego, Calif., USA). The released cells were centrifuged at 1200 r.p.m. for 2 min and stored in cold CO2-independent medium with 30% FCS at […]. Fresh dissociation solution was added to the remaining tissue fragments for 30 min. Dissociation was stopped when no additional cells were released. The fragments were pushed through a sieve and all cells from all incubation periods were pooled and counted.
The dissociated cells were layered onto a double Ficoll gradient (Histopaque; Sigma-Aldrich; densities 1.077 and 1.119) and spun at 700 g for 30 min at room temperature. Cells removed from both interfaces were pooled and washed two times in CO2-independent medium and stored at 4° C. Debris and red blood cell elimination was improved with the dual-density gradient. […]

human A375 melanoma = conditions: 20 μM Pter, 24 h, in vitro; cited from earlier work
A549 human lung cancer = conditions: 20 μM Pter, 24 h, in vitro; cited from earlier work

SMILES: COc1cc(/C=C/c2ccc(O)cc2)cc(OC)c1 [Pter, trans-3,5-dimethoxy-4′-hydroxystilbene]
- Tumor vol. (BxPC-3 pancreatic cancer): 226 ± 63* mm^3
- CAT (MelJuso melanoma cells): 1.1 ± 0.3 mU/10^6 cells
- G6PDH (MelJuso melanoma cells): 366 ± 63 mU/10^6 cells
- GCL (MelJuso melanoma cells): 49 ± 12 mU/10^6 cells
- GGT (MelJuso melanoma cells): 15.9 ± 3.5 mU/10^6 cells
- GPX (MelJuso melanoma cells): 2.1 ± 0.5 mU/10^6 cells
- GSH (MelJuso melanoma cells): 10.8 ± 2.9 nmol/10^6 cells
- GSH/GSSG (MelJuso melanoma cells): 108 ± 17
- GSR (MelJuso melanoma cells): 5.1 ± 1.0 mU/10^6 cells
- GSS (MelJuso melanoma cells): 7.8 ± 1.5 mU/10^6 cells
- GSSG (MelJuso melanoma cells): 0.1 ± 0.04 nmol/10^6 cells
- GST (MelJuso melanoma cells): 4.7 ± 1.3 mU/10^6 cells
- H2O2 (MelJuso melanoma cells): 0.8 ± 0.2 nmol/10^6 cells × min
- IDH (MelJuso melanoma cells): 1.5 ± 0.4 U/10^6 cells
- ME (MelJuso melanoma cells): 25 ± 7 mU/10^6 cells
- NADPH (MelJuso melanoma cells): 0.05 ± 0.02 nmol/mg prot
- NADPH/NADP^+ (MelJuso melanoma cells): 1.7 ± 0.3
- NADP^+ (MelJuso melanoma cells): 0.03 ± 0.01 nmol/mg prot
- NOX (MelJuso melanoma cells): 142 ± 37 R.L.U./10^6 cells
- O2^− (MelJuso melanoma cells): 5.0 ± 1.3 ΔFL1, a.u.
- SOD1 (MelJuso melanoma cells): 0.4 ± 0.2 U/10^6 cells
- SOD2 (MelJuso melanoma cells): 0.1 ± 0.05 U/10^6 cells
- TXN (MelJuso melanoma cells): 0.3 ± 0.1 μg/10^6 cells
- TXNRD (MelJuso melanoma cells): 0.6 ± 0.1 U/10^6 cells
- CAT (HT-29 cells): 0.3 ± 0.1 mU/10^6 cells
- GCL (HT-29 cells): 57 ± 17 mU/10^6 cells
- GSH (HT-29 cells): 8 ± 2 nmol/10^6 cells
- GSS (HT-29 cells): 6.5 ± 1.7 mU/10^6 cells
- GSSG (HT-29 cells): 0.05 ± 0.02 nmol/10^6 cells
- SOD1 (HT-29 cells): 0.2 ± 0.1 U/10^6 cells
- SOD2 (HT-29 cells): 0.02 ± 0.01 U/10^6 cells
- decrease in tumor cell viability (human A375 melanoma): approx. 30%
- decrease in tumor cell viability (A549 human lung cancer): ~40%

Source: patent publication US11179348B2, “Combination comprising pterostilbene for the treatment of cancer” (FUNDACIÓN UNIVERSIDAD CATÓLICA DE VALENCIA SAN VICENTE …, priority 2015, dated 2021)
